Laboratory results from patent EP4417607A1, “HETEROCYCLIC COMPOUND AS SOS1 INHIBITOR AND USES THEREOF” (Nanjing Zaiming Pharmaceutical Co., Ltd., priority 2021, dated 2023).
pIC50: −log10 of the molar value.

Assays:
[1] = tested on: p-ERK pathway in H358 cells; assay: p-ERK pathway inhibition in H358 cells (Advanced phospho-ERK (Thr202/Tyr204) cellular kit, HTRF); assay type: cell-based; details: Homo sapiens, NCI-H358, 1 h compound incubation
How it was run: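 IC50 from an 8-point four-parameter fit of % inhibition of ERK Thr202/Tyr204 phosphorylation, measured by HTRF 665/620 ratio in lysates. H358 cells were seeded at 50000/well, starved overnight without serum, and exposed to compound 1 h at 37 °C; controls were cell-free (100%) and untreated (0%).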

H358 cells = assay: H358 cell proliferation inhibition (CellTiter-Glo luminescent cell viability assay); assay type: cell-based; details: Homo sapiens, NCI-H358, 168 h, 7 days
How it was run: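 H358 cells seeded at 3000 cells/well in RPMI1640/10% FBS, treated with compound for 7 days at 37 °C/5% CO2. Viability read by CellTiter-Glo 3D luminescence, normalised to cell-free (100%) and compound-free (0%) controls; IC50 fitted from 8 concentrations by four-parameter curve.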

| Structure (SMILES) | pIC50 [1] | pIC50 (H358 cells) |
| --- | --- | --- |
| [2H]C([2H])([2H])Oc1c(=O)n(C2(CF)CC2)cc2c(N[C@H](C)c3cccc(C(F)F)c3F)nc(C)nc12 [Example 23, (R)-4-((1-(3-(difluoromethyl)-2-fluorophenyl)ethyl)amino)-6-(1-(fluoromethyl)cyclopropyl)-8-(methoxy-d3)-2-methylpyrido[4,3-d]pyrimidine-7(6H)-one] | 7.35 | 6.93 |
| [2H][C@](C)(Nc1nc(C)nc2c(N3CCOCC3)c(=O)n(C3(CF)CC3)cc12)c1cccc(C(F)F)c1F [Example 55, (R)-4-((1-(3-(difluoromethyl)-2-fluorophenyl)ethyl-1-d)amino)-6-(1-(fluoromethyl)cyclopropyl)-2-methyl-8-morpholinylpyrido[4,3-d]pyrimidine-7(6H)-one] | 7.52 | 7.61 |
| Cc1nc(N[C@H](C)c2cccc(C(F)F)c2F)c2cn(C3(CF)CC3)c(=O)c(N3CCOC[C@@H]3C)c2n1 [Example 40, 4-(((R)-1-(3-(difluoromethyl)-2-fluorophenyl)ethyl)amino)-6-(1-(fluoromethyl)cyclopropyl)-2-methyl-8-((S)-3-methylmorpholine)pyrido[4,3-d]pyrimidine-7(6H)-one] | 7.70 | 7.85 |

Continued, values first:

| pIC50 [1] | pIC50 (H358 cells) | Structure (SMILES) |
| --- | --- | --- |
| 7.38 | 7.01 | COc1c(=O)n(N2CCOCC2)cc2c(N[C@H](C)c3cccc(C(F)F)c3F)nc(C)nc12 [Example 20, (R)-4-((1-(3-(difluoromethyl)-2-fluorophenyl)ethyl)amino)-8-methoxy-2-methyl-6-morpholinepyrido[4,3-d]pyrimidine-7(6H)-one] |
| 8.04 | 7.91 | Cc1nc(N[C@H](C)c2cccc(C(F)F)c2F)c2cn(C3(CF)CC3)c(=O)c(N3CCOCC3)c2n1 [Example 34, (R)-4-((1-(3-(difluoromethyl)-2-fluorophenyl)ethyl)amino)-6-(1-(fluoromethyl)cyclopropyl)-2-methyl-8-morpholinylpyrido[4,3-d]pyrimidine-7(6H)-one] |
